Square brackets hold non-standard residues; d marks the D form. Peptide text beside a SMILES is read from it.
Tests used:
[1] = biological target: T1, c-MYC-tagged human delta opioid receptor (Homo sapiens, UniProt P41143); test: Tb-DeltI saturation binding on CHO/MYChDOR cell membranes (time-resolved fluorometry); conditions: 0.01 – 781.25 nM Tb-DeltI; 6 μg membranes; pH 7.5, 90 min room temperature; nonspecific with 1 μM DeltI; Figure 4B
Description: The cells were collected with PBS + 0.2 % EDTA (w/v) and washed with cold PBS. The CHO/MYChDOR or CHO-K1 cells were suspended into ice-cold 50 mM Tris/HCl, 5 mM EDTA, pH 7.5 and homogenized with Potter S-homogenisator on ice. The homogenate was centrifuged 47800 × g at 4°C and the pellet was suspended into the Tris/EDTA buffer and the homogenization/centrifugation was repeated. The pellet was suspended into cold binding assay incubation buffer and the protein content was measured with the Bradford method.
6 μg of crude membrane preparations or whole cells (25 000 cell/well) that were plated one day before experiment and fixed with 4 % PFA for 10 min at room temperature, were used in the saturation binding experiments. The whole cell assays were carried out on normal cell culture plates and the assays with membrane preparations on special filter plates (Pall Life Sciences). […] Thereafter, 40 μl Delfia enhancer that changes the pH of the assay solution appropriate for Tb-fluorescence was added, and the plates were further incubated for 5 min on a shaker. The time-resolved fluorescence of the released Tb-ion was measured with Victor^2 Multilabel counter (Perkin Elemer Wallac, Turku, Finland).

[2] = biological target: T1, c-MYC-tagged human delta opioid receptor; test: Tb-DeltI binding on CHO/MYChDOR whole cells, effect of (1DMe)NPYF (time-resolved fluorometry); conditions: whole cells, relative BMAX, n = 3
Description: 6 μg of crude membrane preparations or whole cells (25 000 cell/well) that were plated one day before experiment and fixed with 4 % PFA for 10 min at room temperature, were used in the saturation binding experiments. The whole cell assays were carried out on normal cell culture plates and the assays with membrane preparations on special filter plates (Pall Life Sciences). The cells or membranes were incubated in 50 mM Tris/HCl pH 7.5; 2.5 mM MgCl2; 60 mM NaCl; 25 μM EDTA, 0.2 % BSA (w/v) for 90 min at room temperature with 0.01 – 781.25 nM Tb-DeltI in the presence or absence of 1 or 5 μM unlabeled DeltI. To study the effect of (1DMe)NPYF on the Tb-DeltI binding, 1–1000 nM (1DMe)NPYF was added together with unlabeled DeltI. After the incubation the unbound Tb-DeltI was removed by washing the plates four times with 50 mM Tris/HCl pH 7.5; 2.5 mM MgCl2. Vacuum pump system was used to wash the filter plates. Since the chelate-bound Tb-ion is nonfluorescent, it needed to be released from the complex. In order to release Tb-ion from the chelate 150 μl Delfia enhancement solution was added to the wells and the plates were incubated on a shaker for 15 min. Thereafter, 40 μl Delfia enhancer that changes the pH of the assay solution appropriate for Tb-fluorescence was added, and the plates were further incubated for 5 min on a shaker. The time-resolved fluorescence of the released Tb-ion was measured with Victor^2 Multilabel counter (Perkin Elemer Wallac, Turku, Finland).

T1 sequence (P41143 whole entry): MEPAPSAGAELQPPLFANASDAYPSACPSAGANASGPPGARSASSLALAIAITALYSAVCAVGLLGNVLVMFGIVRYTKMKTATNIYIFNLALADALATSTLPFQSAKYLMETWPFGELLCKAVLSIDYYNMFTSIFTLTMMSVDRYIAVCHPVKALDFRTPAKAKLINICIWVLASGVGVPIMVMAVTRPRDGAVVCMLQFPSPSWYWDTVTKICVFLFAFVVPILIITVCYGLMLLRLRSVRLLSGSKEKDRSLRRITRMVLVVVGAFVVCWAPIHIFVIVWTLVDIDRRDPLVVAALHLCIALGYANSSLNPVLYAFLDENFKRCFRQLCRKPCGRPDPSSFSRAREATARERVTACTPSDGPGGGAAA

CC(C)[C@H](NC(=O)[C@H](CC(=O)O)NC(=O)[C@H](Cc1ccccc1)NC(=O)[C@@H](C)NC(=O)[C@H](Cc1ccc(O)cc1)NC(=O)[C@@H](N)CS)C(=O)N[C@H](C(=O)NCC(N)=O)C(C)C [Tb-DeltI] (H-CY[dA]FDVVG-NH2; N-terminus and C-terminus assumed)
Tb-DeltI binding to cell membranes [1]: dose-dependently and the binding was saturable at a nanomolar range
BMAX for Tb-DeltI ([2]; 0 nM (1DMe)NPYF): 1.60 ± 0.06 pmol/cell
BMAX for Tb-DeltI ([2]; in presence of 1 nM (1DMe)NPYF, *** p < 0.001 vs absence of (1DMe)NPYF): 0.70 ± 0.08 *** pmol/cell
BMAX for Tb-DeltI ([2]; in presence of 10 nM (1DMe)NPYF, *** p < 0.001 vs absence of (1DMe)NPYF): 0.89 ± 0.06 *** pmol/cell
BMAX for Tb-DeltI ([2]; in presence of 100 nM (1DMe)NPYF): 1.42 ± 0.11 pmol/cell
BMAX for Tb-DeltI ([2]; in presence of 1000 nM (1DMe)NPYF): 1.49 ± 0.10 pmol/cell
